Results as given in patent US9302999B2, “Substituted triazoles as herbicides” (E. I. DU PONT DE NEMOURS AND COMPANY, priority 2012, dated 2016).

Columns and labels:
Assay type in all cases: in vivo
Waterhemp = assay: Test C preemergence: waterhemp; settings: scale 0 (no effect) to 100 (complete control)
[1] = test system: dayflower, (VA) (Virginia dayflower, Commelina virginica); assay: Test E pre-/postemergence: dayflower, (VA); settings: scale 0 to 100
From the text: (§1) Seeds of plant species selected from corn (Zea mays), soybean (Glycine max), velvetleaf (Abutilon theophrasti), lambsquarters (Chenopodium album), poinsettia, wild (wild poinsettia, Euphorbia heterophylla), pigweed, palmer (palmer pigweed, Amaranthus palmeri), waterhemp (common waterhemp, Amaranthus rudis), smartweed (ladysthumb smartweed, Polygonum persicaria), surinam grass (Brachiaria decumbens), crabgrass, large (large crabgrass, Digitaria sanguinalis), crabgrass, Brazil (Brazilian crabgrass, Digitaria horizontalis), panicum, fall (fall panicum, Panicum dichotomiflorum), foxtail, giant (giant foxtail, Setaria faberii), foxtail, green (green foxtail, Setaria viridis), goosegrass (Eleusine indica), johnsongrass (Sorghum halepense), ragweed (common ragweed, Ambrosia elation), barnyardgrass (Echinochloa crus-galli), sandbur (southern sandbur, Cenchrus echinatus), arrowleaf sida (Sida rhombifolia), ryegrass, Italian (Italian ryegrass, Lolium multiflorum), dayflower, (VA) (Virginia dayflower, Commelina virginica), field bindweed (Convolvulus arvensis), cocklebur (common cocklebur, Xanthium strumarium), morningglory (Ipomoea coccinea), nightshade (eastern black nightshade, Solanum ptycanthum), kochia (Kochia scoparia), nutsedge, yellow (yellow nutsedge, Cyperus esculentus) and beggarticks (hairy beggarticks, Bidens pilosa) were planted into a silt loam soil and treated preemergence with test chemicals formulated in a non-phytotoxic solvent mixture which included a surfactant. At the same time, plants selected from these crop and weed species were planted in pots containing a growing medium comprising spaghnum peat moss, vermiculite, wetting agent and starter nutrients and treated with postemergence applications of some of the test chemicals formulated in the same manner. Plants ranged in height from 2 to 18 cm for postemergence treatments (1- to 4-leaf stage).
(§2) Treated plants and controls were maintained in a greenhouse for 14 to 21 days, after which time all species were compared to controls and visually evaluated. Plant response ratings, summarized in Table E, are based on a scale of 0 to 100 where 0 is no effect and 100 is complete control. A dash (-) response means no test result.

[2] = test system: smallflower umbrella sedge (CYPDI, Cyperus difformis); assay: Test G paddy, alone and in combination: smallflower umbrella sedge; settings: evaluated after 14 days
Description: (§3) Seeds of smallflower umbrella sedge (CYPDI, Cyperus difformis) and ducksalad (HETLI, Heteranthera limosa) were sown on the soil surface in two separate quadrants of 11 cm tubs filled with steam pasteurized Tama soil. Simultaneously, plantings of barnyardgrass (ECHCG, Echinochloa crus-galli) and japonica rice (ORYSP, Oryza sativa) were established in separate “plug” flats. Plants were grown in a greenhouse using supplemental lighting to maintain a photoperiod of approximately 16 h; daytime and nighttime temperatures were approximately 27-30° C. and 19-22° C., respectively. After 8 days, barnyardgrass plants were transplanted to one of the remaining quadrants of the tub, and the water level was adjusted to a final depth of 3 cm. Herbicide application timing was targeted at the 2.0 to 2.5 leaf stage and the plants were treated with test chemicals formulated in a non-phytotoxic solvent. Treated plants and controls were maintained in a greenhouse for 14 days, after which time all species were compared to controls and visually evaluated. Plant response ratings are summarized in Tables G1 through G3, and are based on a scale of 0 to 100 where 0 is no effect and 100 is complete control. A dash (-) response means no test result.

[3] = test system: barnyardgrass (ECHCG, Echinochloa crus-galli); assay: Test G paddy, alone and in combination: barnyardgrass; settings: evaluated after 14 days
Description: as §3

[4] = test system: waterhemp_RES2 (ALS/HPPD resistant common waterhemp, Amaranthus rudis); assay: Test F postemergence: waterhemp_RES2; settings: scale 0 to 100
From the text: Seeds of plant species selected from corn (Zea mays), soybean (Glycine max), velvetleaf (Abutilon theophrasti), lambsquarters (Chenopodium album), poinsettia, wild (wild poinsettia, Euphorbia heterophylla), pigweed, palmer (palmer pigweed, Amaranthus palmeri), waterhemp (common waterhemp, Amaranthus rudis), surinam grass (Brachiaria decumbens), crabgrass, Brazil (Brazilian crabgrass, Digitaria horizontalis), panicum, fall (fall panicum Panicum dichotomiflorum), crabgrass, large (large crabgrass, Digitaria sanguinalis), foxtail, giant (giant foxtail, Setaria faberii), foxtail, green (green foxtail Setaria viridis), goosegrass (Eleusine indica), ragweed (common ragweed, Ambrosia elatior), barnyardgrass (Echinochloa crus-galli), sandbur (southern sandbur, Cenchrus echinatus), arrowleaf sida (Sida rhombifolia), ryegrass, Italian (Italian ryegrass, Lolium multiflorum), dayflower, VA (Virginia (VA) dayflower, Commelina virginica), field bindweed (Convolvulus arvensis), cocklebur (common cocklebur, Xanthium strumarium), morningglory (Ipomoea coccinea), nightshade (eastern black nightshade, Solanum ptycanthum), kochia (Kochia scoparia), nutsedge, yellow (yellow nutsedge, Cyperus esculentus), johnsongrass (Sorghum halepense), smartweed (ladysthumb smartweed, Polygonum persicaria), and beggarticks (hairy beggarticks, Bidens pilosa), were planted into a silt loam soil and treated preemergence with test chemicals formulated in a non-phytotoxic solvent mixture which included a surfactant. At the same time, plants selected from these crop and weed species and also pigweed (Amaranthus retroflexus), waterhemp_RES1 (ALS/Triazine resistant common waterhemp, Amaranthus rudis) and waterhemp_RES2 (ALS/HPPD resistant common waterhemp, Amaranthus rudis) were planted in pots containing a planting medium comprising spaghnum peat moss, vermiculite, wetting agent and starter nutrients treated with postemergence applications of some of the test chemicals formulated in the same manner. Plants ranged in height from 2 to 18 cm for postemergence treatments (1- to 4-leaf stage).
as §2

[5] = test system: morningglory (Ipomoea coccinea); assay: Test E pre-/postemergence: morningglory; settings: Preemergence, scale 0 to 100
From the text: as §1, §2

## CCOc1nn(-c2ccc(Br)cc2)nc1Cc1ccnc(C(F)(F)F)c1 [Compound 189]
Waterhemp; 16 g ai/ha
  Plant response rating, Waterhemp: 90
Waterhemp; 31 g ai/ha
  Plant response rating, Waterhemp: 98

## Cc1nn(-c2ccc(F)cc2)nc1Cc1ccnc(C(F)(F)F)c1 [Compound 16, 4-[[2-(4-fluorophenyl)-5-methyl-2H-1,2,3-triazol-4-yl]methyl]-2-(trifluoromethyl)pyridine]
[1]; Preemergence, 8 g ai/ha
  Plant response rating: Dayflower, VA: 0
[1]; Preemergence, 16 g ai/ha
  Plant response rating: Dayflower, VA: 0
[1]; Preemergence, 31 g ai/ha
  Plant response rating: Dayflower, VA: 35
[1]; Preemergence, 62 g ai/ha
  Plant response rating: Dayflower, VA: 50
[1]; Preemergence, 125 g ai/ha
  Plant response rating: Dayflower, VA: 85
[2]; Rate 8 g/ha
  CYPDI plant response rating (scale of 0 to 100): 85
[2]; Rate 16 g/ha
  CYPDI plant response rating (scale of 0 to 100): 85
[3]; Rate 8 g/ha
  ECHCG plant response rating (scale of 0 to 100): 25
[3]; Rate 16 g/ha
  ECHCG plant response rating (scale of 0 to 100): 35

## CCc1nn(-c2ccc(F)cc2)nc1Oc1ccnc(C(F)(F)F)c1 [Compound 166]
Waterhemp; 31 g ai/ha
  Plant response rating, Waterhemp: 55

## Cc1nn(-c2ccc(C(F)(F)F)c(F)c2)nc1Cc1ccnc(C(F)(F)F)c1 [Compound 162]
[4]; 4 g ai/ha
  Plant response rating, Waterhemp, Res2: 75
[4]; 8 g ai/ha
  Plant response rating, Waterhemp, Res2: 90
[4]; 16 g ai/ha
  Plant response rating, Waterhemp, Res2: 90
[4]; 31 g ai/ha
  Plant response rating, Waterhemp, Res2: 95
[4]; 62 g ai/ha
  Plant response rating, Waterhemp, Res2: 100

## Cc1nn(-c2ccc(F)c(F)c2)nc1Oc1ccnc(C(F)(F)F)c1 [Compound 145]
[4]; 125 g ai/ha
  Plant response rating, Waterhemp, Res2: 85

## Cc1nn(-c2ccc(F)cc2)nc1Oc1ccnc(C(F)(F)F)c1 [Compound 129, 4-[[2-(4-fluorophenyl)-5-methyl-2H-1,2,3-triazol-4-yl]oxy]-2-(trifluoromethyl)pyridine]
[2]; Rate 16 g/ha
  CYPDI plant response rating (scale of 0 to 100): 0
[2]; Rate 31 g/ha
  CYPDI plant response rating (scale of 0 to 100): 75
[2]; Rate 32 g/ha
  CYPDI plant response rating (scale of 0 to 100): 48
[3]; Rate 16 g/ha
  ECHCG plant response rating (scale of 0 to 100): 0
[3]; Rate 31 g/ha
  ECHCG plant response rating (scale of 0 to 100): 15
[3]; Rate 32 g/ha
  ECHCG plant response rating (scale of 0 to 100): 5
[5]; 8 g ai/ha
  Plant response rating: Morningglory: 0
[5]; 16 g ai/ha
  Plant response rating: Morningglory: 0
[5]; 31 g ai/ha
  Plant response rating: Morningglory: 0
[5]; 62 g ai/ha
  Plant response rating: Morningglory: 40
[5]; 125 g ai/ha
  Plant response rating: Morningglory: 50

## Cc1nn(-c2ccc(C(F)(F)F)cc2)nc1Cc1ccnc(C(F)(F)F)c1 [Compound 47, 4-[[5-methyl-2-[4-(trifluoromethyl)phenyl]-2H-1,2,3-triazol-4-yl]methyl]-2-(trifluoromethyl)pyridine]
[1]; Postemergence, 250 g ai/ha
  Plant response rating: Dayflower, VA: 30
[1]; Postemergence, 16 g ai/ha
  Plant response rating: Dayflower, VA: 10
[1]; Postemergence, 31 g ai/ha
  Plant response rating: Dayflower, VA: 10
[1]; Postemergence, 62 g ai/ha
  Plant response rating: Dayflower, VA: 20
[1]; Postemergence, 125 g ai/ha
  Plant response rating: Dayflower, VA: 25
[5]; 16 g ai/ha
  Plant response rating: Morningglory: 15
[5]; 31 g ai/ha
  Plant response rating: Morningglory: 30
[5]; 62 g ai/ha
  Plant response rating: Morningglory: 35
[5]; 125 g ai/ha
  Plant response rating: Morningglory: 40
[5]; 250 g ai/ha
  Plant response rating: Morningglory: 65
